Counter-ions that a name gives are not always drawn. Like-named read-outs stand apart in the source and are kept apart here.
What was measured:
hCB2 = hCB2 (Homo sapiens, UniProt P34972); experiment: In vitro binding assay using hCB2-CHO membranes, [3H]-CP-55,940 displacement (Protocol IV); parameters: expressed in transfected cells; host or cells: CHO (hCB2-CHO, generated in-house); conditions: hCB2-CHO membranes, [3H]-CP-55,940 displacement; for inhibition at 0.3 µM: 1 h, read-out: % Displacement Protocol IV
Sequence of hCB2 (P34972 whole entry): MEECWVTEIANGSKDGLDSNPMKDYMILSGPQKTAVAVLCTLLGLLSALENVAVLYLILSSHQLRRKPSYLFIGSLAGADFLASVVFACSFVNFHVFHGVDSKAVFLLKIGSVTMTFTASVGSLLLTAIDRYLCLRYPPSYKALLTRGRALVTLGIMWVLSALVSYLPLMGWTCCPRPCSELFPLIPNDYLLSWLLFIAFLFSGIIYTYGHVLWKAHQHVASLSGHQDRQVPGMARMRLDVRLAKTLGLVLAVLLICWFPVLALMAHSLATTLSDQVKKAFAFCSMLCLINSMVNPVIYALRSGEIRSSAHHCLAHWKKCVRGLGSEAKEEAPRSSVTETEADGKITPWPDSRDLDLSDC
How it was run: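 Displacement of [3H]-CP-55,940 (0.75 nM) from membranes of CHO cells expressing human CB2 (25-50 μg) was measured in Tris-BSA buffer pH 7.4 with 5 mM MgCl2, 1 mM EDTA, 0.1% BSA, 1 h at 30 °C. Test compounds were at 300 nM final; nonspecific binding defined with 0.5 μM CP-55,940. Values are % displacement of specific binding.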

CB1 = CB1 (Rattus norvegicus, UniProt P20272); experiment: Rat CB1 receptor binding using brain membrane, [3H]SR141716A displacement (Protocol I); parameters: CB1 receptor present in a rat brain membrane preparation; from tissue; host or cells: rat brain membrane; inhibition: dose or concentration left out as unconfirmed; conditions: for inhibition: 1 h
Sequence of CB1 (P20272 whole entry): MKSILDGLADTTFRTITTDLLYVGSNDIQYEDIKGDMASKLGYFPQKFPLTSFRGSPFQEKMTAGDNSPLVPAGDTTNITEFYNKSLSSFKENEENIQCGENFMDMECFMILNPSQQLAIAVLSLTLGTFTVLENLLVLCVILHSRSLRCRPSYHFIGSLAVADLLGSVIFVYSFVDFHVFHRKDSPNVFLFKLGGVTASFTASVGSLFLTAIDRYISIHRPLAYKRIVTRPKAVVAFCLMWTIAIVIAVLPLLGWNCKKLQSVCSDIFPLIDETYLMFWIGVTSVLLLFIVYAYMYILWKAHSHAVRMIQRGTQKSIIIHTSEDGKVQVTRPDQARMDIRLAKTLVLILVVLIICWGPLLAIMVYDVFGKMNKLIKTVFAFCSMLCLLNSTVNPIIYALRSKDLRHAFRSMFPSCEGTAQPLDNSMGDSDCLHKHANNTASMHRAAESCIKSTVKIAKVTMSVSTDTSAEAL
Procedure: I. In Vitro Protocol for Rat CB1 Receptor Binding Using Brain Membrane
In this assay, [^3H]SR141716A (5-(4-chlorophenyl)-1-(2,4-dichlorophenyl)-4-methyl-N-(1-piperidyl)pyrazole-3-carboxamide) was used to bind the CB1 receptor present in a rat brain membrane preparation which can be displaced by unlabeled ligands having affinity to the CB1 receptor.
The assay was performed according to the modified method of Thomas et al., 1998 (JPET 285: 285-292). The total reaction mixture ([…]) contained Tris-BSA buffer (50 mM Tris, pH 7.4 with 1.5% BSA) or unlabeled SR141716A […] or test samples […], [^3H] SR141716A (2 nM) and […] of rat brain membrane. The non-specific binding was defined by […] of SR141716A. The assay mixture was incubated at 37° C. for 1 hour. The reaction was then stopped by rapid filtration under vacuum using Whatman GF/B-96 micro filter plate. A scintillation cocktail was added and radioactive counts were measured using a Topcount beta scintillation counter.
The standard and test sample dilutions were made in an assay buffer containing either ethanol or DMSO at a final concentration of 1%.
The percent (%) displacement by a test ligand was calculated by comparing the specific bound values.

[1] = rat brain membrane, [3H]SR141716A displacement, read-out: % Displacement Protocol I
[2] = rat brain membrane, [3H]SR141716A displacement
[3] = read-out: % Displacement Protocol I, rat brain membrane, [3H]SR141716A displacement

| SMILES | inhibition (CB1; [1]) [%] | melting point [°C] | also measured |
| --- | --- | --- | --- |
| O=C(Nc1ccc(Cl)cc1)c1nn(-c2ccc(Cl)cc2)c2c1C1CCC2C1 (stereo not drawn) [Example 216, N(3)-(4-Chlorophenyl)-1-(4-chlorophenyl)-4,5,6,7-tetrahydro-1H-4,7-methano-indazole-3-carboxamide] | 32.2 | 182 to 184 | inhibition at 0.3 µM (hCB2): 20.7% |
| O=C(c1nn(-c2ccc(Cl)cc2)c2c1C1CC3CC(C1)CC2C3)N1CCCCC1 [Example 141, 7-(4′-Chlorophenyl)-6,7-diazatetracyclo[7.3.1.1^3,11.0^4,8]tetradeca-4(8)-5-dien-5-yl-piperidinomethanone] |  |  | % Displacement Protocol I (CB1; [2]): 17% |
| O=C(NCc1ccccc1)c1nn(-c2ccccc2Cl)c2c1C1CCC2C1 (stereo not drawn) [Example 207, N(3)-Benzyl-1-(2-chlorophenyl)-4,5,6,7-tetrahydro-1H-4,7-methano-indazole-3-carboxamide] | -1.2 |  |  |
| O=C(NN1CCCCC1)c1nn(-c2ccccc2Br)c2c1C1CCC2C1 (stereo not drawn) [Example 270, N(3)-Piperidino-1-(2-bromophenyl)-4,5,6,7-tetrahydro-1H-4,7-methano-indazole-3-carboxamide] | -14.6 | 236 | inhibition at 0.3 µM (hCB2): 8.62% |
| O=C(NNc1ccc(Cl)cc1Cl)c1nn(-c2ccccc2)c2c1C1CC3CC(C1)CC2C3 [Example 167, N(7)-[(2,4-Dichlorophenyl)amino]-5-phenyl-5,6-diazatetracyclo[7.3.1.1^3,11.0^4,8]tetradeca-4(8),6-diene-7-carboxamide] | 61.3 | 166 to 170 | inhibition at 0.3 µM (hCB2): 24.6% |
| O=C(NN1CCCCC1)c1nn(-c2ccc(F)cc2F)c2c1C1CCC2C1 (stereo not drawn) [Example 289, N(3)-Piperidino-1-(2,4-difluorophenyl)-4,5,6,7-tetrahydro-1H-4,7-methano-indazole-3-carboxamide] | 71.3 | 143 |  |
| O=C(NCc1ccc(Cl)cc1)c1nn(-c2ccc(Cl)cc2)c2c1C1CCC2C1 (stereo not drawn) [Example 222, N(3)-(4-Chlorobenzyl)-1-(4-chlorophenyl)-4,5,6,7-tetrahydro-1H-4,7-methano-indazole-3-carboxamide] | 39.4 | 157 to 160 | inhibition at 0.3 µM (hCB2): 15.7% |
| O=C(NN1CCCCC1)c1nn(-c2ccccc2Cl)c2c1C1CCC2C1 (stereo not drawn) [Example 205, N(3)-Piperidino-1-(2-chlorophenyl)-4,5,6,7-tetrahydro-1H-4,7-methano-indazole-3-carboxamide] | -12.7 | 232 | inhibition at 0.3 µM (hCB2): 15.9% |
| O=C(NNc1ccccc1Cl)c1nn(-c2ccc(Cl)cc2)c2c1C1CC3CC(C1)CC2C3 [Example 124, N(7)-(2-Chlorophenylamino)-5-(4-chlorophenyl)-5,6-diazatetracyclo[7.3.1.1^3,11.0^4,8]tetradeca-4(8),6-diene-7-carboxamide hydrochloride] |  |  | inhibition (CB1; [3]): 80.1% |
| O=C(NCc1ccc(C(F)(F)F)cc1)c1nn(-c2ccc(Cl)cc2)c2c1C1CC3CC(C1)CC2C3 [Example 116, N(7)-(4-Trifluoromethylbenzyl)-5-(4-chlorophenyl)-5,6-diazatetracyclo[7.3.1.1^3,11.0^4,8]tetradeca-4(8),6-diene-7-carboxamide] |  |  | inhibition (CB1; [3]): 24.9% |
| COc1ccccc1NC(=O)c1nn(-c2ccc(Cl)cc2)c2c1C1CCC2C1 (stereo not drawn) [Example 218, N(3)-(2-Methoxyphenyl)-1-(4-chlorophenyl)-4,5,6,7-tetrahydro-1H-4,7-methano-indazole-3-carboxamide] | 29.9 | 149 to 151 |  |
| O=C(Nc1cccc(Br)c1)c1n[nH]c2c1C1(c3ccc(Cl)cc3)CCC2C1 (stereo not drawn) [Example 217, N(3)-(3-Bromophenyl)-4-(4-chlorophenyl)-4,5,6,7-tetrahydro-1H-4,7-methano-indazole-3-carboxamide] | 20.5 |  | inhibition at 0.3 µM (hCB2): 10.7% |
| O=C(NNc1ccccc1)c1nn(-c2ccc(F)cc2F)c2c1C1CCC2C1 (stereo not drawn) [Example 285, N(3)-Phenylamino-1-(2,4-difluorophenyl)-4,5,6,7-tetrahydro-1H-4,7-methano-indazole-3-carboxamide] | 61.9 | 161 |  |
| O=C(Nc1ccccc1)c1nn(-c2ccc(Cl)cc2)c2c1C1CC3CC(C1)CC2C3 [Example 142, N(7)-Phenyl-5-(4′-chlorophenyl)-5,6-diazatetracyclo[7.3.1.1^3,11.0^4,8]tetradeca-4(8)-6-diene-7-carboxamide] |  |  | % Displacement Protocol IV (hCB2): 9.86%; % Displacement Protocol I (CB1; [2]): 25% |
| O=C(NNc1ccc(Cl)cc1Cl)c1nn(-c2ccccc2Cl)c2c1C1CC3CC(C1)CC2C3 [Example 181, N(7)-(2,4-Dichlorophenylamino)-5-(2-chlorophenyl)-5,6-diazatetracyclo[7.3.1.1^3,11.0^4,8]tetradeca-4(8),6-diene-7-carboxamide] | 16.4 | 233 to 240 |  |
| O=C(NNc1cccc(F)c1)c1nn(-c2ccc(Cl)cc2)c2c1C1CC3CC(C1)CC2C3 [Example 133, N(7)-(3-fluorophenylamino)-5-(4-chlorophenyl)-5,6-diazatetracyclo[7.3.1.1^3,11.0^4,8]tetradeca-4(8),6-diene-7-carboxamide] | 59.7 | 203 |  |
| O=C(NCc1ccc(Br)cc1)c1nn(-c2ccc(Cl)cc2)c2c1C1CCC2C1 (stereo not drawn) [Example 225, N(3)-(4-Bromobenzyl)-1-(4-chlorophenyl)-4,5,6,7-tetrahydro-1H-4,7-methano-indazole-3-carboxamide] | 31.1 | 181 to 183 |  |
| O=C(NCCc1ccccc1)c1nn(-c2ccc(Cl)cc2Cl)c2c1C1CCC2C1 (stereo not drawn) [Example 254, N(3)-(2-phenylethyl)-1-(2,4-dichlorophenyl)-4,5,6,7-tetrahydro-1H-4,7-methano-indazole-3-carboxamide] | 9.1 |  |  |
| O=C(NCc1ccccc1)c1nn(-c2ccccc2)c2c1C1CCC2C1 (stereo not drawn) [Example 203, N(3)-Benzyl-1-phenyl-4,5,6,7-tetrahydro-1H-4,7-methano-indazole-3-carboxamide] | -10.4 | 115 |  |
| O=C(NCc1ccccc1)c1nn(-c2ccc(F)cc2)c2c1C1CCC2C1 (stereo not drawn) [Example 280, N(3)-Benzyl-1-(4-fluorophenyl)-4,5,6,7-tetrahydro-1H-4,7-methano-indazole-3-carboxamide] | 33 | 104 |  |
| O=C(NCCc1ccc(F)cc1)c1nn(-c2ccc(Cl)cc2Cl)c2c1C1CCC2C1 (stereo not drawn) [Example 255, N(3)-[2-(4-fluorophenyl)ethyl]-1-(2,4-dichlorophenyl)-4,5,6,7-tetrahydro-1H-4,7-methano-indazole-3-carboxamide] | 23.9 |  |  |
| O=C(NC1CCCCC1)c1nn(-c2ccc(F)cc2)c2c1C1CCC2C1 (stereo not drawn) [Example 279, N(3)-Cyclohexyl-1-(4-fluorophenyl)-4,5,6,7-tetrahydro-1H-4,7-methano-indazole-3-carboxamide] |  | 127 | inhibition (CB1; [3]): 62% |
| O=C(NNc1ccc(F)cc1)c1nn(-c2ccc(Cl)cc2)c2c1C1CC3CC(C1)CC2C3 [Example 130, N(7)-(4-Fluorophenylamino)-5-(4-chlorophenyl)-5,6-diazatetracyclo[7.3.1.1^3,11.0^4,8]tetradeca-4(8),6-diene-7-carboxamide] | 60.6 | 125 to 127 |  |
| O=C(NN1CCCCC1)c1nn(-c2ccc(Cl)cc2Cl)c2c1C1c3ccccc3C2C2C(=O)N(c3ccc(Cl)cc3)C(=O)C12 (stereo not drawn) [Example 602, N(12)-Piperidino-16-(4-chlorophenyl)-10-(2,4-dichlorophenyl)-15,17-dioxo-10,11,16-triazapentacyclo[6.5.2.0^2,7.0^9,13.0^14,18]octadeca-2,4,6,9(13),11-pentaene-12-carboxamide] |  |  | % Displacement Protocol IV (hCB2): 16.4%; % Displacement Protocol I (CB1; [2]): 4.1% |
| O=C(NCc1ccccc1Cl)c1nn(-c2ccc(Cl)cc2Cl)c2c1C1CCC2C1 (stereo not drawn) [Example 249, N(3)-(2-Chlorobenzyl)-1-(2,4-dichlorophenyl)-4,5,6,7-tetrahydro-1H-4,7-methano-indazole-3-carboxamide] | 47.7 | 117 to 120 |  |
| O=C(Nc1ccccc1)c1nn(-c2ccc(Cl)cc2Cl)c2c1C1CCC2C1 (stereo not drawn) [Example 243, N(3)-Phenyl-1-(2,4-dichlorophenyl)-4,5,6,7-tetrahydro-1H-4,7-methano-indazole-3-carboxamide] | 23.5 | 66 to 68 |  |

From patent US7923465B2, “Cannabinoid receptor ligands, pharmaceutical compositions containing them, and process for their preparation” (priority 2005, dated 2011)
